Experiment [1] has as its system Stachybotrys chartarum.
A further experiment deals with Stachybotrys. Particulars: 1000 ppm, lab trial.
The subject of another experiment is Rhizopus. The conditions noted are these: 1000 ppm, lab trial.
The subject of a further experiment is Penicillium. The conditions noted are these: lab trial.
The subject of experiment [2] is Stachybotrys chartarum. Particulars: for growth during incubation period: 144 hour incubation, all concentrations; for growth: all concentrations (400 to 2000 ppm), malt extract agar, 25° C.
In the next experiment the test system is Penicillium chrysogenum. Particulars: low concentrations, malt extract agar, 25° C., 144 hours.
For the next experiment, the system named is Aspergillus flavus. Particulars: for growth: all concentrations, malt extract agar, 25° C., 144 hours.
A further experiment relates to Aspergillus parasiticus. The conditions noted are these: for growth: all concentrations, malt extract agar, 25° C., 144 hours.
The test system of another experiment is three different fungi. Particulars: 2000 ppm, lab trial.
The next experiment concerns Rhizopus stolonifer. The conditions noted are these: for growth during incubation period: 144 hour incubation.
Where [3] appears, read: 2000 ppm, d.f=2, p<0.05, unpaired one-tailed T-tests.

Read-outs that look alike come from different tables or passages of the source.

Experimental for Aspergillus flavus: (§1) For each fungus tests were conducted on malt extract agar that was amended with five concentrations of sucrose octanoate. The control medium was standard malt extract agar. The concentrations were prepared based on 100% active ingredient. The parts per million were calculated afterwards to account for a concentration of 40% active ingredient. All fungi in the tests were incubated at 25° C. for 144 hours.
(§2) For each fungi tests were conducted on malt extract agar that was amended with five concentrations of sorbitol octanoate. The control medium was standard malt extract agar. The concentrations were prepared based on 100% active ingredient. The parts per million were calculated afterwards to account for a concentration of 40% active ingredient. All fungi in the tests were incubated at 25° C. for 144 hours.
Experimental for Aspergillus parasiticus: as §1, §2
Experimental for Penicillium chrysogenum: as §1, §2
Experimental for Rhizopus stolonifer: as §1, §2

Regarding “Zinc Mono-Sucrose Succinate [Compound A]”, the “reduction of radial growth” value with Pythium ultimum (1000 ppm) was found to be 92.3%; with Rhizoctonia solani (1000 ppm), 75.4%; in the experiment with Fusarium graminearum (1000 ppm), 73%; in the experiment with Alternaria sp (1000 ppm), 64.9%; with Mucor sp (1000 ppm), 74.4%; with Stachybotrys chartarum [1] (1000 ppm) it was 66.0%. In addition, in the experiment on Aspergillus niger (1000 ppm), the “reduction of radial growth” value came to 65.6%. In addition, the radial growth diameter in the experiment on Pythium ultimum (1000 ppm, control 85 mm) is 6.6 mm; in the experiment with Rhizoctonia solani (1000 ppm, control 62.3 mm), 15.3 mm; in the experiment with Fusarium graminearum (1000 ppm, control 67.6 mm), 18.3 mm; in the experiment with Alternaria sp (1000 ppm, control 28.5 mm), 10 mm; in the experiment on Mucor sp (1000 ppm, control 66.5 mm), 17 mm; in the experiment with Stachybotrys chartarum [1] (1000 ppm, control medium 19.7 mm), 6.7 mm. The radial growth diameter in the experiment with Aspergillus niger (1000 ppm, control medium 63.0 mm) is given as 21.7 mm. Besides, the growth result with Pythium ultimum (5000 ppm), in the experiment on Alternaria sp (5000 ppm), with Mucor sp (5000 ppm) and with Aspergillus niger (5000 ppm) was “no significant level of growth” throughout. For the same substance, the growth measurement in the experiment on Rhizoctonia solani (5000 ppm, very limited growth) is listed as 10 mm; in the experiment with Stachybotrys chartarum [1] (5000 ppm, very limited growth), 2.7 mm. The inhibition entry in the experiment on Fusarium graminearum (5000 ppm) is listed as “no additional inhibition over the 1000-ppm assay”. Besides, the sporulation entry in the experiment on Stachybotrys chartarum [1] (1000 ppm medium, high levels on control medium) is listed as “reduced to low levels”; in the experiment on Aspergillus niger (1000 ppm medium, also high on control medium), “high”.

Turning to sorbitol octanoate, the values for the growth of fungus entry with Stachybotrys, with Rhizopus and in the experiment with Penicillium (2000 ppm) were “prevented the growth”, “prevented the growth” and “some growth”, respectively. In the experiment on Stachybotrys chartarum [2], the “growth during incubation period” value was “No growth”. In addition, the growth entry in the experiment on Stachybotrys chartarum [2] is recorded as “inhibited”; with Penicillium chrysogenum it was “able to grow, although slowly compared to the control”; in the experiment on Aspergillus flavus, “able to grow”; in the experiment with Aspergillus parasiticus it was “able to grow”.

Regarding sucrose octanoate, in the experiment with three different fungi, the growth of fungi entry is “prevented the growth”. The growth of fungus result in the experiment on Stachybotrys was “prevented the growth”; in the experiment with Rhizopus it was “prevented the growth”; in the experiment on Penicillium (1000 ppm), “some growth”. Further, the figures for the “growth during incubation period” value with Rhizopus stolonifer (all concentrations tested), in the experiment with Rhizopus stolonifer (all concentrations with the exception of 400 ppm level) and in the experiment with Stachybotrys chartarum [2] were “no growth”, “no growth” and “No growth”, respectively. Also, the growth entry in the experiment on Rhizopus stolonifer (all concentrations tested (400 to 2000 ppm), malt extract agar, 25° C.) is given as “inhibited”; in the experiment on Stachybotrys chartarum [2], “inhibited”; in the experiment with Penicillium chrysogenum it was “able to grow, although slowly compared to the control”; with Aspergillus flavus, “able to grow”; in the experiment on Aspergillus parasiticus, “able to grow”. Also, the “growth compared with control plates” value with Aspergillus flavus (setting [3]) and in the experiment with Aspergillus parasiticus (setting [3]) was “significantly less” in each case.

Values taken from US20050272692A1, “Sucrose ester compounds useful as fungicides” (priority 2004, published 2005).
